# Test results taken from patent US20120065179A1, “PRODRUG COMPRISING BETA-KETO CARBOXYLIC ACID, BETA-KETO CARBOXYLIC ACID SALT OR BETA-KETO CARBOXYLIC ACID ESTER FOR DRUG DELIVERY” (YKI, Ytemiska Institutet AB, priority 2009, published 2012).
# Values joined by “and” are separate entries in the source; they are usually repeats but may differ in a detail not shown here. Equal values may be shown once. Read-outs that look alike come from different tables or passages of the source. Marks after values point to notes of the source that are not given here.
# Experiments:
# [1] = Aqueous solubility of benzoylacetate salts (Example 13a); details: water
# [2] = Storage stability of benzoylacetate salts and their corresponding acid (HPLC or gravimetric); type: physicochemical; details: solid
# Protocol: A 0.2 M solution of ethyl benzoyl acetate (90%, Sigma Aldrich) in 0.5 M NaOH (aq) was prepared at room temperature and stirred for typically 5-24 hours, still at room temperature. After this time a major part of the ethyl benzoyl acetate had been transformed into dissolved sodium benzoyl acetate, as evidenced by monitoring the reaction by analysis of samples by reversed phase HPLC. Some acetophenone and remaining ethyl benzoyl acetate were typically present in the samples, but in minor amounts. The method employed a C8 column with an inner diameter of 150×4.6 mm and 5 micron particles. The mobile phase consisted of 400 ml deionized water+600 ml acetonitrile+0.196 g H3PO4 (85%)+2.760 g NaH2PO4*H2O. The flow rate was set to 1.0 mL/min and UV detection at 254 nm was employed for analysis of the compounds ethylbenzoylacetate (precursor), benzoylacetate (model prodrug) and acetophenone (model drug).
# The storage stability of the sodium and calcium salts of benzoylacetate, and of benzoylacetic acid, in solid form, and in aqueous solutions, was investigated by storage of samples under various conditions (see Table 3a above) with regular HPLC- or gravimetric measurements of the samples from time to time. Samples denoted “neutralized” were prepared from a solution prepared as described in Example 1, which was neutralized with diluted HCl after performing the steps in Example 1.
# From the data it can be concluded that the best storage stability at room temperature is obtained by storage in the form of the calcium salt.
# [3] = Re-activation of storage stabile beta-keto calcium salt by dissolution, release of ketone (odour); type: physicochemical
# Protocol: 25 mg of the precipitated and dried calcium salt prepared in Example 2, was, after being subjected to the storage stability test of Example 4, dissolved in 5.66 g of tap water and boiled for two minutes.
# rat = details: cited from earlier work
# [4] = In-vitro hydrolysis of Nabumetone beta-keto ester pro-prodrug and release of Nabumetone in model blood electrolyte solution at 37° C.; type: physicochemical; details: for Nabumetone formed in the solution: under-estimated, precipitating Nabumetone compromised sampling
# [5] = water at 25° C.; Sepassi et al, 2007; cited from earlier work
# [6] = Aqueous solubility of sodium beta-keto salt prodrug of Nabumetone (Example 13b); type: physicochemical
# Protocol: 12.1 mg of the of ethyl-5-(6-methoxy-2-naphthyl)-beta-keto-pentanoate product prepared and purified as in Example 8 was mixed with 25 mL of a 0.5 M aqueous solution NaOH and homogenised on a vortex mixer. […] 15 minutes after preparation of the sample, the sample was transferred to an oil bath set at 37° C. with continuous gentle magnetic stirring, and kept there for 3.5 hours. Crystalline flakes remained in the sample at the end of the 3.5 hours heat-treatment, and the sample was thereafter centrifuged and the clear liquid above the sedimented crystals was analysed by HPLC as described above.
# After storage around one hour at room temperature a fraction of the sample was then filtered twice through a 0.2 μm filter (Whatman, 0.2 μm PS) fitted to a syringe to give a clear solution. 200 μL of this filtered solution was transferred, in a tightly closed vessel, to an oil bath at 95° C. and kept at this temperature for about 5 hours to bring about quantitative decarboxylation of the labile, dissolved beta-keto carboxylic salt prodrug derivative of Nabumetone.
# The heated sample was then mixed with 35 mL of mobile phase (see Example 1) whereby a few solid crystals (comprising Nabumetone) was seen to not dissolve. In order to assure a correct sampling for HPLC analysis, 5 mL of the 35 mL sample was filtered through a 0.2 μm filter, after the whole 35 mL sample had been pH adjusted to 4.21 by 300 μL 0.1 M HCl+100 μL 1 M HCl, to assure that the pH of the sample was close to the pH of the mobile phase itself (pH 4.30). The filtered solution was thereafter analysed by HPLC and found to contain 0.777 mg Nabumetone per liter. If recalculated to the corresponding concentration of nabumetone equivalents in the form of the beta-keto salt prodrug present in dissolved form in the filtered 200 μl sample that was subsequently heat-treated to form Nabumetone above, the obtained concentration corresponds to a Nabumetone concentration of 136.7 mg Nabumetone per liter in the clear aqueous solution, at room temperature, before the heat-treatment at 95° C.
# [7] = Sustained release of Nabumetone from beta-keto sodium salt prodrug in phosphate buffer at blood pH and 37° C.; type: physicochemical; details: released from beta-keto salt prodrug, phosphate buffer pH about 7.4, 37° C.
# Protocol: 20.91 mg of the product synthesised as described in Example 8 (however in this case not purified by the chromatographic step in Example 8) was mixed with 1 ml 0.5 M NaOH at room temperature, whereby a portion of the sample was dissolved. After 30 minutes the mixture was placed in an oven at 37° C., and 10 μl samples was taken at regular intervals, diluted with 1 ml mobile phase (as in Example 1), and analyzed by HPLC, using UV-detection at 240 nm. 3.0 hours after initiation of the saponification reaction, the precursor (retention time 4.6 min) could no longer be detected, and the precursor peak was replaced by a peak from the intermediary beta-keto salt prodrug (retention time 2.3 minutes). At this point in time, a solution of 9 ml H2O and 0.0762 g NaH2PO4 was added to the sample, in order to create a NaH2PO4/Na2HPO4 pH buffer by neutralization of the NaOH remaining in the sample. […] The sample was again placed in the oven at 37° C. and the decarboxylation of the beta-keto salt in solution, gradually giving the commercially available drug Nabumetone, was followed by HPLC by taking 100 μl samples at regular intervals and diluting them with 1 ml mobile phase (see Example 1 above) before injection on the HPLC. It can be seen from the data that Nabumetone was continuously released into the solution via the spontaneous, non-enzymatic decarboxylation of the dissolved prodrug sodium salt, over a period of more than 120 hours. The half-life of the prodrug was estimated to be about 70 hours in this medium and under the conditions used.
# [8] = Storage stability of beta-keto calcium salt prodrug of Nabumetone (17 days at 60° C., HPLC); type: physicochemical
structure (smiles),measurement,setting,value
"O=C([O-])CC(=O)c1ccccc1.O=C([O-])CC(=O)c1ccccc1.[Ca+2] [calcium benzoylacetate, Ca(benzoylacetate)2]",Solubility,"[1]; as Ca(benzoylacetate)2, corrected for 40 wt % content",69 mM
same,"Solubility (mM, as acetophenone equivalents)","[1]; benzoylacetate in the solution, corrected for 40 wt % content",138 mM
same,solubility limit,[1]; dry calcium salt sample containing only 40 wt % calcium benzoyl acetate,~63 mg/mL
same,"Absolute amount of calcium benzoylacetate in sample (wt %, from HPLC)","[2]; 1 days at room T and typical indoor humidity, 0 days at 50% RH and room T, 0 days at 60° C. in oven",35.9 wt %
same,"Absolute amount of calcium benzoylacetate in sample (wt %, from HPLC)","[2]; 1.9 days at room T and typical indoor humidity, 0 days at 50% RH and room T, 0 days at 60° C. in oven",34.2 wt %
same,"Absolute amount of calcium benzoylacetate in sample (wt %, from HPLC)","[2]; 8 days at room T and typical indoor humidity, 0 days at 50% RH and room T, 0 days at 60° C. in oven",43.0 wt %
same,"Absolute amount of calcium benzoylacetate in sample (wt %, from HPLC)","[2]; 9 days at room T and typical indoor humidity, 0 days at 50% RH and room T, 103 days at 60° C. in oven",45.6 wt %
same,"Absolute amount of calcium benzoylacetate in sample (wt %, from HPLC)","[2]; 9 days at room T and typical indoor humidity, 103 days at 50% RH and room T, 0 days at 60° C. in oven",32.1 wt %
same,"Absolute amount of calcium benzoylacetate in sample (wt %, from HPLC)","[2]; 28 days at room T and typical indoor humidity, 0 days at 50% RH and room T, 0 days at 60° C. in oven",33.1 wt %
same,"Absolute amount of calcium benzoylacetate in sample (wt %, from HPLC)","[2]; 112 days at room T and typical indoor humidity, 0 days at 50% RH and room T, 0 days at 60° C. in oven",40.4 wt %
same,release of acetophenone (odour),"[3]; 25 mg dissolved in 5.66 g tap water and boiled for two minutes, after storage stability test",strong odour of acetophenone
same,release of acetophenone (odour),[3]; similar amount kept in dry form in an identical beaker,did not give rise to any acetophenone odour
CN [methyl amine],LD50,rat,100 mg/kg
CCN [ethyl amine],LD50,rat,280 mg/kg
"COc1ccc2cc(CCC(C)=O)ccc2c1 [Nabumetone, 4-(6-methoxy-2-naphthyl)-2-butanone]",storage time after which sedimenting crystalline flakes of Nabumetone were detected in the sample,[4]; model blood solutes solution,100 to 150 h
same,Nabumetone staying in a stabile dispersion (theoretical concentration),[4]; model blood solutes solution with surface active beta-keto anion prodrug,40 mg/L
same,Nabumetone formed in the solution,"[4]; model blood solutes solution, Time 96.8 hours",(2656)* mg/L
same,Nabumetone formed in the solution,"[4]; model blood solutes solution, Time 121.25 hours",(2715)* mg/L
same,Nabumetone formed in the solution,"[4]; model blood solutes solution, Time 145.0 hours",(2423)* mg/L
same,Nabumetone formed in the solution,"[4]; model blood solutes solution, Time 172.6 hours",(3508)* mg/L
same,Nabumetone formed in the solution,"[4]; model blood solutes solution, Time 197.3 hours",(3240)* mg/L
same,Nabumetone formed in the solution,"[4]; model blood solutes solution, Time 218.4 hours",(3859)* mg/L
same,Nabumetone formed in the solution,"[4]; model blood solutes solution, Time 293.7 hours",(3013)* mg/L
same,Solubility,[5],0.0047 mg/mL
same,Nabumetone found in filtered solution by HPLC,"[6]; 200 μL filtered prodrug solution decarboxylated at 95° C. for about 5 hours, mixed with 35 mL mobile phase",0.777 mg Nabumetone per liter
same,Area at retention time 3.8 minutes characteristic for detection of Nabumetone,"[6]; clear liquid after 3.5 h at 37° C. in 0.5 M NaOH, 200 μL diluted with 5.0 ml mobile phase",59 arbitrary units
same,Nabumetone (HPLC area @ 3.8 min),[7]; 3.25 h after initiation of saponification,0
same,Nabumetone (HPLC area @ 3.8 min),[7]; 5.1 h after initiation of saponification,0
same,Nabumetone (HPLC area @ 3.8 min),[7]; 21.45 h after initiation of saponification,5265
same,Nabumetone (HPLC area @ 3.8 min),[7]; 24.25 h after initiation of saponification,5388 and 5496
same,Nabumetone (HPLC area @ 3.8 min),[7]; 28.15 h after initiation of saponification,5804
same,Nabumetone (HPLC area @ 3.8 min),[7]; 45.4 h after initiation of saponification,10083
same,Nabumetone (HPLC area @ 3.8 min),[7]; 50 h after initiation of saponification,11400
same,Nabumetone (HPLC area @ 3.8 min),[7]; 78 h after initiation of saponification,13359
same,Nabumetone (HPLC area @ 3.8 min),[7]; 117 h after initiation of saponification,18156
same,Nabumetone (HPLC area @ 3.8 min),[7]; 194 h after initiation of saponification,22484
same,Relative amount of calcium salt beta-keto prodrug/Nabumetone remaining after 17 days at 60° C.,[8]; 408 h,45.3%
same,Obtained value (area units),"[8]; dry calcium salt after 17 days at 60° C., redissolved in water, HPLC",1315 area units
same,Expected value if no breakdown occured during storage and a 100% yield was obtained upon precipitation with calcium chloride,[8]; recalculated for dilution,90 area units
